One may read the IC50 as the midpoint of a concentration-inhibition curve. High values mean weaker potency, low ones greater potency.

The target in the test is T1, Tyrosine-protein kinase Mer (Homo sapiens, UniProt Q12866).
T1 sequence (Q12866 whole entry): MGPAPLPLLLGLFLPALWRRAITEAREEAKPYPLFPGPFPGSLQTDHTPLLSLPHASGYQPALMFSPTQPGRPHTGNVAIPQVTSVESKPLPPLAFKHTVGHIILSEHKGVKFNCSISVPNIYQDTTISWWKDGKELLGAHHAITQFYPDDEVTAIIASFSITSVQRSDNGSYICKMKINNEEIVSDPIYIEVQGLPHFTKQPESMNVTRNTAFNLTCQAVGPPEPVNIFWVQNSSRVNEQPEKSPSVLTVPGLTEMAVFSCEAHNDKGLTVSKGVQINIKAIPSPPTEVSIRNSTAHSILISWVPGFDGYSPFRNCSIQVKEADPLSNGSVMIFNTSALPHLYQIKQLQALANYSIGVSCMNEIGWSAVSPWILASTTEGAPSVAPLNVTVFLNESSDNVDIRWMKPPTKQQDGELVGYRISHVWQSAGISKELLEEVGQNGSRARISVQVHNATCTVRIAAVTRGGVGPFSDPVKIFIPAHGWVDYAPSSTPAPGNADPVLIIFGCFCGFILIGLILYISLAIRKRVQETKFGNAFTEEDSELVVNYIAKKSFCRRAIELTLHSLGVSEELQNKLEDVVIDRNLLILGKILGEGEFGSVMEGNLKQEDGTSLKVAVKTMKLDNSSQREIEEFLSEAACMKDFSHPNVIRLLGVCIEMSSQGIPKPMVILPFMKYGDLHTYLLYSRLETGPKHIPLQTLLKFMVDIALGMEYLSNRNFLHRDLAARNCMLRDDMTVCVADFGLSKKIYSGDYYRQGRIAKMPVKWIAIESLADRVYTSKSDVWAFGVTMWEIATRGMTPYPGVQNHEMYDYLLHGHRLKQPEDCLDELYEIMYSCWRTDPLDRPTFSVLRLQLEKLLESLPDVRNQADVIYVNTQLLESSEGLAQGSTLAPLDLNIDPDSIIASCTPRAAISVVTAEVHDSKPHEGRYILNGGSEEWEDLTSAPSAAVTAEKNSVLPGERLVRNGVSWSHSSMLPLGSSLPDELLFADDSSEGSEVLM
Kind of test: Inhibition of Mer (unknown origin) by cell free assay.

As for `Cc1ccc(-n2c(=O)c(C(=O)Nc3ccc(Oc4ncnc5c4CCN(CC4CCN(C)CC4)C5)c(F)c3)cn(C3CCCC3)c2=O)nc1`, the IC50 was found to be 190 nM.

(Values after ChEMBL document CHEMBL4823291, “Discovery of 5,6,7,8-tetrahydropyrido[3,4-d]pyrimidine derivatives as novel selective Axl inhibitors” (Bioorg Med Chem Lett, 2021).)
